From US20230372221A1, “USE OF THIOPYRIDINONE COMPOUNDS FOR PREVENTING THE FORMATION OF CUTANEOUS BLACKHEADS” (L'OREAL, priority 2020, published 2023)

Tested on: oxidation of the L-DOPA under the action of the bacterial extract (intracellular extract of Cutibacterium acnes CIP 53.117)
Experiment: In vitro evaluation of the ability to inhibit the development of the colour (absorbance at 475 nm of L-DOPA + Cutibacterium acnes extract)
Assay type: biochemical
Details: for inhibiting the development of the colour (result in words): compared with Reference (absence of treatment); for optical density at 475 nm: 32° C.; for % inhib (percentage of inhibition of the formation of the coloured product): from initial rate of oxidation between 10 and 40 minutes vs reference composition
Text: This method is based on the measurement of absorbance, over time, carried out directly on a composition formed of a mixture of intracellular extract of bacteria of Cutibacterium acnes type, of 3,4-dihydroxy-L-phenylalanine (L-DOPA) and of a test compound. The measurements are compared with those carried out for a mixture of an intracellular extract of bacteria of Cutibacterium acnes type and of 3,4-dihydroxy-L-phenylalanine (L-DOPA), in the absence of test compound (reference). The method is adapted from a method for the enzymatic assay of the tyrosinase activity (Behbahani et al., Microchemical Journal (1993), 47, 251), which is based on the absorbance properties at 475 nm of a coloured intermediate of the pathway for the biosynthesis of melanin starting from L-DOPA, namely dopachrome, a product of the oxidation of L-DOPA. An intracellular extract of bacteria of Cutibacterium acnes CIP 53.117 type stored at 4° C. in the lyophilized form is suspended in 1×PBS (supplied by Gibco BRL Life Technologies) at a concentration of 6 mg/ml. A solution of L-DOPA at a concentration of 0.5 mg/ml is prepared by bringing together L-DOPA (supplied by Sigma-Aldrich) and milliQ water, so as to have an L-DOPA concentration of 1 mg/ml, then diluting with 1×PBS (Dulbecco's Phosphate Buffered Saline, supplied by Gibco BRL Life Technologies). The mixture of 50 μl of these two solutions and of 100 μl of 1×PBS (Dulbecco's Phosphate Buffered Saline, supplied by Gibco BRL Life Technologies) results in a composition with a total volume of 200 μl containing L-DOPA (at a concentration of 125 μg/ml) and Cutibacterium acnes extract (at a concentration of 1.5 mg/ml). The test compositions and the reference composition are introduced separately into wells of a 96-well microplate suitable for reading in visible spectrophotometry, and placed at a temperature of 32° C. The formation of a coloured product is monitored over time by spectrophotometry. To do this, the absorbance, or optical density (O.D.), is measured at 475 nm from the time 0 to the time 2 hours by means of a Spectra Max M5e reader and the Spectra Max software (the time 0 corresponds to the introduction of the composition into the wells). The ability to inhibit the development of the colour of a given compound was assessed by comparing the absorbance measurements obtained for the test compositions with those obtained for the reference composition. More specifically, the inhibitory effect of the test compound was evaluated by comparing the initial rate of oxidation of the L-DOPA under the action of the bacterial extract at 475 nm for the test composition with that of the reference composition in order to obtain a corresponding percentage of inhibition. In practice, the initial rate (Vi) of the oxidation reaction is calculated from the linear part of the curve of the graph of the absorbance values. As this part lies between 10 and 40 minutes (see the graph in FIG. 1), the initial rate of the oxidation reaction is determined using the following relationship: [formula] The percentage of inhibition (% inhib) of a given compound with regard to the formation of the coloured product is subsequently obtained using the values of the initial rate of the oxidation reaction for the reference composition (Viref) and for the test composition ([…]) according to the following relationship: [formula] Within the meaning of the invention, a compound is regarded as having an inhibitory effect if the % inhib value is at least 15%.

[1] = test compound 100 μM, duration 0 minutes
[2] = test compound 100 μM, duration 10 minutes
[3] = test compound 100 μM, duration 20 minutes
[4] = test compound 100 μM, duration 30 minutes
[5] = test compound 100 μM, duration 40 minutes
[6] = test compound 100 μM, duration 60 minutes
[7] = test compound 100 μM, duration 80 minutes
[8] = test compound 100 μM, duration 100 minutes
[9] = test compound 100 μM, duration 120 minutes

Structure (SMILES): CCOC(=O)CNC(=O)c1ccc[nH]c1=S [Compound 5, Ethyl N-[(2-thioxo-1,2-dihydropyridin-3-yl)carbonyl]glycinate]
- inhibiting the development of the colour (result in words): very effective
- optical density at 475 nm (test compound 12.5 μM, duration 0 minutes): 0.0531
- optical density at 475 nm (test compound 12.5 μM, duration 10 minutes): 0.0535
- optical density at 475 nm (test compound 12.5 μM, duration 20 minutes): 0.0550
- optical density at 475 nm (test compound 12.5 μM, duration 30 minutes): 0.0559
- optical density at 475 nm (test compound 12.5 μM, duration 40 minutes): 0.0572
- optical density at 475 nm (test compound 12.5 μM, duration 60 minutes): 0.0601
- optical density at 475 nm (test compound 12.5 μM, duration 80 minutes): 0.0636
- optical density at 475 nm (test compound 12.5 μM, duration 100 minutes): 0.0659
- optical density at 475 nm (test compound 12.5 μM, duration 120 minutes): 0.0674
- % inhib (percentage of inhibition of the formation of the coloured product) (test compound 12.5 μM): 57%
- optical density at 475 nm (test compound 25 μM, duration 0 minutes): 0.0559
- optical density at 475 nm (test compound 25 μM, duration 10 minutes): 0.0567
- optical density at 475 nm (test compound 25 μM, duration 20 minutes): 0.0572
- optical density at 475 nm (test compound 25 μM, duration 30 minutes): 0.0575
- optical density at 475 nm (test compound 25 μM, duration 40 minutes): 0.0578
- optical density at 475 nm (test compound 25 μM, duration 60 minutes): 0.0588
- optical density at 475 nm (test compound 25 μM, duration 80 minutes): 0.0602
- optical density at 475 nm (test compound 25 μM, duration 100 minutes): 0.0627
- optical density at 475 nm (test compound 25 μM, duration 120 minutes): 0.0651
- % inhib (percentage of inhibition of the formation of the coloured product) (test compound 25 μM): 87%
- optical density at 475 nm (test compound 50 μM, duration 0 minutes): 0.0539
- optical density at 475 nm (test compound 50 μM, duration 10 minutes): 0.0554
- optical density at 475 nm (test compound 50 μM, duration 20 minutes): 0.0557
- optical density at 475 nm (test compound 50 μM, duration 30 minutes): 0.0560
- optical density at 475 nm (test compound 50 μM, duration 40 minutes): 0.0565
- optical density at 475 nm (test compound 50 μM, duration 60 minutes): 0.0573
- optical density at 475 nm (test compound 50 μM, duration 80 minutes): 0.0579
- optical density at 475 nm (test compound 50 μM, duration 100 minutes): 0.0585
- optical density at 475 nm (test compound 50 μM, duration 120 minutes): 0.0593
- % inhib (percentage of inhibition of the formation of the coloured product) (test compound 50 μM): 87%
- optical density at 475 nm [1]: 0.0532
- optical density at 475 nm [2]: 0.0534
- optical density at 475 nm [3]: 0.0548
- optical density at 475 nm [4]: 0.0550
- optical density at 475 nm [5]: 0.0550
- optical density at 475 nm [6]: 0.0555
- optical density at 475 nm [7]: 0.0557
- optical density at 475 nm [8]: 0.0561
- optical density at 475 nm [9]: 0.0563
- % inhib (percentage of inhibition of the formation of the coloured product) (test compound 100 μM): 82%

Structure (SMILES): O=c1cc(CO)occ1O [Kojic acid, kojic acid, reference compound]
- inhibiting the development of the colour (result in words): does not make it possible to inhibit the development of the colour
- inhibiting the development of the colour (result in words) (listed as kojic acid): without effect
- optical density at 475 nm [1]: 0.0599
- optical density at 475 nm [2]: 0.0614
- optical density at 475 nm [3]: 0.0646
- optical density at 475 nm [4]: 0.0698
- optical density at 475 nm [5]: 0.0741
- optical density at 475 nm [6]: 0.0804
- optical density at 475 nm [7]: 0.0837
- optical density at 475 nm [8]: 0.0845
- optical density at 475 nm [9]: 0.0843
- % inhib (percentage of inhibition of the formation of the coloured product) (test compound 100 μM): −1%

Structure (SMILES): CCCCc1ccc(O)cc1O [Lucinol, 4-butylresorcinol, reference compound]
- inhibiting the development of the colour (result in words): does not make it possible to inhibit the development of the colour
- inhibiting the development of the colour (result in words) (listed as lucinol): without effect
- optical density at 475 nm [1]: 0.0552
- optical density at 475 nm [2]: 0.0563
- optical density at 475 nm [3]: 0.0591
- optical density at 475 nm [4]: 0.0629
- optical density at 475 nm [5]: 0.0671
- optical density at 475 nm [6]: 0.0730
- optical density at 475 nm [7]: 0.0758
- optical density at 475 nm [8]: 0.0768
- optical density at 475 nm [9]: 0.0765
- % inhib (percentage of inhibition of the formation of the coloured product) (test compound 100 μM): 0%
